This note sets out measurements from patent US20230002367A1, “BIFUNCTIONAL COMPOUNDS” (Hoffmann-La Roche Inc., priority 2019, published 2023).

The assay deals with T1, SMARCA2 (Homo sapiens, UniProt P51531).
T1 construct: endogenous in cells
In words: SMARCA2 HiBiT degradation assay (cellular). It counts as cell-based. As to conditions: for Emax: A549, Emax = amount of residual protein remaining in the cell following compound treatment; for DC50: SMARCA2 HiBiT cells, luminescence readout, 11-point titration from 10 μM, 6 hours or 16 hours, read-out: HiBit A549 SMARCA2 IP. (In general: The HiBiT peptide binds its large partner to form an active luciferase.)

T1 sequence (P51531 whole entry): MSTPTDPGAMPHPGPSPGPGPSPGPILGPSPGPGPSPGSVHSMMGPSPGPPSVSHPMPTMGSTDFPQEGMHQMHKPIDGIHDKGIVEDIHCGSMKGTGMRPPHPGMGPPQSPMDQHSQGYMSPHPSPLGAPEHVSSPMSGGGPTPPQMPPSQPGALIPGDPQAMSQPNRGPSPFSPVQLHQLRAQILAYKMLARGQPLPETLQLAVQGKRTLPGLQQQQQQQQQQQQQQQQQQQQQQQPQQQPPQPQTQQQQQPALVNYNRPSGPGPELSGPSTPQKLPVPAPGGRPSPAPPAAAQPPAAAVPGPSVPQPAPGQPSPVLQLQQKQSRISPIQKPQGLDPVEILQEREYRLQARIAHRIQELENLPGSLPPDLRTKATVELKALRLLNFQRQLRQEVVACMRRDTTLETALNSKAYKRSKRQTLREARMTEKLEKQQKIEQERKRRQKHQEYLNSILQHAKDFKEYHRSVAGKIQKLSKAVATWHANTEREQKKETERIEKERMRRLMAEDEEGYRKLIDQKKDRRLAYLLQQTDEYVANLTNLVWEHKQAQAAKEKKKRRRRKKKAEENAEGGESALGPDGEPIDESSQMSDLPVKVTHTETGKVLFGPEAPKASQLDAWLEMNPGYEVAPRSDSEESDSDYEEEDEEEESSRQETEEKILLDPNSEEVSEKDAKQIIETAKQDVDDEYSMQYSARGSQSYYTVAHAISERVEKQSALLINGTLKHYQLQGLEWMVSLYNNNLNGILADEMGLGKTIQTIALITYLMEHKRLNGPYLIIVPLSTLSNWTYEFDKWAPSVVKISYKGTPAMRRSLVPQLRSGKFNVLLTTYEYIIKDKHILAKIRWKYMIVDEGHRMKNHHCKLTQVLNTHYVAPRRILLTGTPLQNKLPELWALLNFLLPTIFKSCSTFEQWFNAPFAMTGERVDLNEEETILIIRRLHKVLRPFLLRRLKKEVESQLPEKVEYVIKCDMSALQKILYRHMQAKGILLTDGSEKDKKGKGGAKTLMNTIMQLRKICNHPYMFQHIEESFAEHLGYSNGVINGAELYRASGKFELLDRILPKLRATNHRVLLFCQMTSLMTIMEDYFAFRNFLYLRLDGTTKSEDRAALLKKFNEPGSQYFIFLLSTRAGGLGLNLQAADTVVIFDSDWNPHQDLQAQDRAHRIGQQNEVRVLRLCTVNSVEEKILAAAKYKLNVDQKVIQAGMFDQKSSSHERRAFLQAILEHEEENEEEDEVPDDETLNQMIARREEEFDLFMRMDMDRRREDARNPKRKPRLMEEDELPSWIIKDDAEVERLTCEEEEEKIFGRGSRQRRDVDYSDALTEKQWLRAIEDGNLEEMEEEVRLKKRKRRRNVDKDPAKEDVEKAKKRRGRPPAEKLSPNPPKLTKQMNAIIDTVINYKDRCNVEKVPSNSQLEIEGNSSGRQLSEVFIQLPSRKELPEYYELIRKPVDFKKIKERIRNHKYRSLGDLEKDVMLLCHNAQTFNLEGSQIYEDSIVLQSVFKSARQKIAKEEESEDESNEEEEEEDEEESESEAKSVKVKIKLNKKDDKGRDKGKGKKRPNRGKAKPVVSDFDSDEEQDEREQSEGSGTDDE

Consider `Cc1ncsc1-c1ccc([C@H](C)NC(=O)[C@@H]2C[C@@H](O)CN2C(=O)[C@@H](NC(=O)CCOCCC(=O)N2CCN(c3ccc(CN4CCCC(Oc5cc(-c6ccccc6O)nnc5N)C4)cc3)CC2)C(C)(C)C)cc1` (mixture of isomers) [Example 38, rac-(2S,4R)-4-hydroxy-1-[rac-(2S)-2-[3-[3-[4-[4-[[3-[3-amino-6-(2-hydroxyphenyl)pyridazin-4-yl]oxy-1-piperidyl]methyl]phenyl]piperazin-1-yl]-3-oxo-propoxy]propanoylamino]-3,3-dimethyl-butanoyl]-N-[rac-(1S)-1-[4-(4-methylthiazol-5-yl)phenyl]ethyl]pyrrolidine-2-carboxamide], for which the Emax (commonly the greatest response seen or fitted, relative to the assay's reference) came out at 70% and the DC50 came out at 589 nM.

Take `Cc1ncsc1-c1ccc(CNC(=O)[C@@H]2C[C@@H](O)CN2C(=O)[C@@H](NC(=O)CCCCCC(=O)N2CC(Oc3cc(-c4ccccc4O)nnc3N)CC(c3ccccc3)C2)C(C)(C)C)cc1` (mixture of isomers) [Example 66, Trans rac-(2S,4R)-4-hydroxy-N-[[4-(4-methylthiazol-5-yl)phenyl]methyl]-1-[rac-(2S)-2-[[7-[3-[3-amino-6-(2-hydroxyphenyl)pyridazin-4-yl]oxy-5-phenyl-1-piperidyl]-7-oxo-heptanoyl]amino]-3,3-dimethyl-butanoyl]pyrrolidine-2-carboxamide]: the Emax stood at 49% and the DC50 is 2020 nM.

As for `Cc1ncsc1-c1ccc([C@H](C)NC(=O)[C@@H]2C[C@@H](O)CN2C(=O)[C@@H](NC(=O)CCOCCOCCOCCC(=O)N2CCN(c3ccc(N4CCCC(Oc5cc(-c6ccccc6O)nnc5N)C4)cc3)CC2)C(C)(C)C)cc1` (mixture of isomers) [Example 46, rac-(2S,4R)-4-hydroxy-1-[rac-(2S)-2-[3-[2-[2-[3-[4-[4-[3-[3-amino-6-(2-hydroxyphenyl)pyridazin-4-yl]oxy-1-piperidyl]phenyl]piperazin-1-yl]-3-oxo-propoxy]ethoxy]ethoxy]propanoylamino]-3,3-dimethyl-butanoyl]-N-[rac-(1S)-1-[4-(4-methylthiazol-5-yl)phenyl]ethyl]pyrrolidine-2-carboxamide], the Emax was 51% and the DC50 worked out at 2610 nM.

`Cc1ncsc1-c1ccc(CNC(=O)[C@@H]2C[C@@H](O)CN2C(=O)[C@@H](NC(=O)CCCCCCCCCCC(=O)N2CCN(CCOc3cccc(C#Cc4cc(-c5ccccc5O)nnc4N)c3)CC2)C(C)(C)C)cc1` [Example 36, (2S,4R)-1-[(2S)-2-[[12-[4-[2-[3-[2-[3-amino-6-(2-hydroxyphenyl)pyridazin-4-yl]ethynyl]phenoxy]ethyl]piperazin-1-yl]-12-oxo-dodecanoyl]amino]-3,3-dimethyl-butanoyl]-4-hydroxy-N-[[4-(4-methylthiazol-5-yl)phenyl]methyl]pyrrolidine-2-carboxamide]: the Emax was 49% and the DC50 came out at 838 nM.

Consider `Cc1ncsc1-c1ccc([C@@H](C)NC(=O)[C@H]2C[C@H](O)CN2C(=O)[C@H](NC(=O)CCOCCC(=O)N2CCN(c3ccc(N4CCCC(Oc5cc(-c6ccccc6O)nnc5N)C4)cc3)CC2)C(C)(C)C)cc1` (stereo in doubt) [Example 31, (2R,4S)-1-((2R)-2-(3-(3-(4-(4-(3-((3-amino-6-(2-hydroxyphenyl)pyridazin-4-yl)oxy)piperidin-1-yl)phenyl)piperazin-1-yl)-3-oxopropoxy)propanamido)-3,3-dimethylbutanoyl)-4-hydroxy-N-((R)-1-(4-(4-methylthiazol-5-yl)phenyl)ethyl)pyrrolidine-2-carboxamide], for which the Emax was found to be 30% and the DC50 was 1920 nM.
